# From publication PMC5399312 (Journal of Experimental & Clinical Cancer Research : CR, 2017)
# Experiments:
# SW480 cells [1] = test: Soft agar colony formation assay; format: cell-based, human; conditions: 100 μM
# Protocol: About 0.6% agar was poured into the six-well plate. […] Media was changed every three days, and colonies were further observed for 10 days. Colonies were then stained with 0.01% of crystal violet staining solution for 2 h.
# [2] = test system: SW480 cells transfected with HK2 siRNA; test: HK2 siRNA knock-down, CCK-8 cytotoxicity; format: cell-based, human; conditions: compared with negative control siRNA cells
# Description: SW480 cells were transfected with either two siRNAs against HK2 or one nontargeting siRNA and cultured in 6-well plates according to the manufacturer’s instructions. The target sequences of oligo siRNAs were as follows: siRNA: 5'- […] -3', nontargeting siRNA (Negative control, NC): 5'- […] -3' [21].
# SW480 cells [3] = test: Glucose uptake assay; format: cell-based, human; conditions: 48 h; versus untreated or Met treated control
# Protocol: The Glucose Assay Kit (Rsbio, Shanghai, China) was used to analyse the glucose uptake. After 48 h drug treatment, media was collected and diluted within water. The amount of glucose in the media was then detected. Glucose uptake was determined by subtracting the amount of glucose in each sample from the total amount of glucose in the media (without cells). Met was used as a standard control in this assay.
# SW480 cells [4] = test: Determination of lactate generation; format: cell-based, human; conditions: 48 h; versus untreated or Met treated control
# Protocol: After 48 h drug treatment, media was collected and assayed following the manufacturer’s instructions of Lactic Acid Production Detection kit (KeyGen, Nanjing, China) to measure the generation of lactic acid. The assay was determined using a plate reader (Synergy HT, BioTek, USA) at 530 nm. Met was used as a positive control.
# SW480 cells [5] = test: Measurement of intracellular ATP level; format: cell-based, human; conditions: 75, 150 and 300 μM, 48 h
# Protocol: After centrifugation, supernatants were assayed by ATP assay kit (KeyGen, Nanjing, China) to determine the generation of ATP. The assay was determined using the plate reader (Synergy HT, BioTek, USA) at 636 nm.
# SW480 cells [6] = test: Flow cytometric analysis for apoptosis (Annexin-V/PI); format: cell-based, human; conditions: 48 h, control 0.7%
# Protocol: Then the cells were harvested, washed twice with ice-cold PBS, and mixed in 100 μL of 1× binding buffer (10 mM HEPES/ NaOH, pH 7.4, 140 mM NaCl, 2.5 mM CaCl2). After culturing for 15 min at room temperature in Annexin-V/PI double staining liquid (Nanjing KeyGen Biotech. Inc.), the cells were examined by flow cytometry (BD Biosciences, FACSCalibur).
# [7] = Detection of free Benz in tumor tissue (HPLC); format: in vivo, mouse; conditions: 600 mg/Kg Benz-treated group
# Protocol: After recording the weights of tumor mass, tumor tissues from 600 mg/Kg Benz-treated group and 200 mg/Kg liposomal Benz-treated group were lightly washed and blotted to remove any excess blood. Then tumor tissues were homogenized and extracted with methanol, and 100 μL of the extracts were then subjected to HPLC assay. HPLC analysis was conducted by using a reverse phase column (Restek C18 5 μm, 250 mm × 4.6 mm) with a mobile phase of methanol-water- trifluoroacetic acid (20: 1000: 1).
# HK2 = target: T1, HK2 (Homo sapiens, UniProt P52789); test: In vitro enzyme inhibition assay (G6P-DH coupled, NADH 340 nm); format: biochemical; conditions: for Vmax: Lineweaver-Burk
# T1 construct: made in house; host or cells: E. coli BL21 (DE3)
# T1 sequence (P52789 1-917): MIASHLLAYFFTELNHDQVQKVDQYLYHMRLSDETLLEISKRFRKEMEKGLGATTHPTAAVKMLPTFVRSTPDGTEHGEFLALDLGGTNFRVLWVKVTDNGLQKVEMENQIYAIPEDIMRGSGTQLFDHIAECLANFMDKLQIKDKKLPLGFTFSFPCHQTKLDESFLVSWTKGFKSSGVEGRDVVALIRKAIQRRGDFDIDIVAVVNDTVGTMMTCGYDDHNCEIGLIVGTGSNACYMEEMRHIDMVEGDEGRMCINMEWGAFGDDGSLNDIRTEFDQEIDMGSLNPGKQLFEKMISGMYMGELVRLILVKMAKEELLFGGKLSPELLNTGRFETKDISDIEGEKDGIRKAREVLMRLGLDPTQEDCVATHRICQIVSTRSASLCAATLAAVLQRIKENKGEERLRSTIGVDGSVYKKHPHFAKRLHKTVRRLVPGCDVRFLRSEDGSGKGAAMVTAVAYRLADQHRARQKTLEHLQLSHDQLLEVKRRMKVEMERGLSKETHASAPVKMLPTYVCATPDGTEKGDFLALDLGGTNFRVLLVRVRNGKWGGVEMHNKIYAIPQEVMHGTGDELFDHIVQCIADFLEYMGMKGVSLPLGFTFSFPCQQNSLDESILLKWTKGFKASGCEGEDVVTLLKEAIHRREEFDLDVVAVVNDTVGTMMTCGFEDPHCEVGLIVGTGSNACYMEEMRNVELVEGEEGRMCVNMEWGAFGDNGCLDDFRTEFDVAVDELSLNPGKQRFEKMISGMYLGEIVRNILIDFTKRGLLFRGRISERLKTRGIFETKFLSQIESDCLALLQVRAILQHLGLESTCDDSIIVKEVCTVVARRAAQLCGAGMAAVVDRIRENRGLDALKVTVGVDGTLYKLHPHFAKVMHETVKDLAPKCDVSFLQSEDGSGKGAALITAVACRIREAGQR
smiles,measurement,setting,value
"NC(CO)C(=O)NNCc1ccc(O)c(O)c1O (stereo not shown) [Benz, Benserazide]",anchorage-independent growth (colony formation),SW480 cells [1],dramatically reduced the ability to form colonies
same,cytotoxicity to HK2 siRNA transfected cells,[2],fewer effects
same,glucose uptake,SW480 cells [3],significantly lower
same,concentration of lactate in cell culture supernatant,SW480 cells [4],remarkably decreased
same,intracellular ATP level,SW480 cells [5],reduced
same,apoptotic death,SW480 cells [6]; 75 μM,10.4%
same,apoptotic death,SW480 cells [6]; 150 μM,22.5%
same,apoptotic death,SW480 cells [6]; 300 μM,44.1%
same,average concentration of free Benz in tumor tissue,[7],5.59 µg/mg
same,Vmax,HK2; Benz 5 μM,0.037 OD/min
same,Vmax,HK2; Benz 10 μM,0.029 OD/min
same,Vmax,HK2; Benz 20 μM,0.018 OD/min
same,mechanism of inhibition,HK2; versus glucose,combined mechanism of both competitive and noncompetitive binding
